From publication PMC8658989, “Synthesis and Biological Studies on (KLAKLAK)2-NH2 Analog Containing Unnatural Amino Acid β-Ala and Conjugates with Second Pharmacophore” (Molecules, 2021)
No end group written: not given here.

Columns and labels:
MDA-MB-231 [1] = assay: Antiproliferative activity, MTT dye-reduction assay, MDA-MB-231; assay type: cell-based, human; settings: SI = IC50 of MCF-10A/IC50 of MDA-MB-231
Procedure: (§1) The compounds were studied for antiproliferative activity by MTT dye-reduction assay. Cell cultures from different cell lines (MCF-10A, MCF-7 and MDA-MB-231) were incubated with the test substances at a concentration of 15 to 2000 μM for 72 h at 37 °C, 5% CO2 and 95% humidity. The antiproliferative activity expressed in % relative to the negative control was determined.
(§2) The antiproliferative activity testing was performed on cell cultures from several human cell lines using the standard MTT dye-reduction assay, described by Mosmann. The assay is based on the metabolism of the tetrazolium salt 3-(4,5-dimethylthiazol-2-yl)-2,5-diphenyltetrazolium bromide (MTT) to insoluble formazan by mitochondrial reductases. The formazan concentration can be determined spectrophotometrically. The measured absorption is an indicator of cell viability and metabolic activity. The following cell lines were used in the experiments: mammary gland type A adenocarcinoma ER+, PR+ and HER2− (MCF-7); triple-negative breast cancer ER−, PR−, and HER2− (MDA-MB-231); and breast, nontumorigenic epithelial cell line (MCF-10A). The cell lines were routinely grown as monolayers in 75 cm^2 tissue culture flasks under standard conditions (described above). Cells were plated at a density of 1 × 10^3 cells in 100 µL in each well of 96-well flat-bottomed microplates and allowed to adhere for 24 h before treatment with test compounds. A concentration range from 15 to 2000 μM was applied for 72 h. Formazan absorption was registered using a microplate reader at λ = 540 nm. Antiproliferative activities were expressed as IC50 values (concentrations required for 50% inhibition of cell growth), calculated using nonlinear regression analysis (GraphPad Prism 4 Software, https://www.graphpad.com).

MCF-7 [2] = assay: Antiproliferative activity, MTT dye-reduction assay, MCF-7; assay type: cell-based, human; settings: SI = IC50 of MCF-10A/IC50 of MCF-7
Procedure: as §1, §2

MDA-MB-231 [3] = tested on: MDA-MB-231; parameters: method as in PMID 33567789; settings: MTT; data already published; ref [25]; read-out: IC50 of Mean ± SD Antiproliferative Activity MDA-MB-231; cited from earlier work
MCF-10A = tested on: MCF-10A; parameters: method as in PMID 33567789; settings: MTT; data already published; ref [25]; read-out: IC50 of Mean ± SD Antiproliferative Activity MCF-10A; cited from earlier work
MCF-7 [4] = tested on: MCF-7; parameters: method as in PMID 33567789; settings: MTT; data already published; ref [25]; read-out: IC50 of Mean ± SD Antiproliferative Activity MCF-7; cited from earlier work

## CC(C)C[C@H](NC(=O)[C@H](CCCCN)NC(=O)[C@H](C)NC(=O)[C@H](CC(C)C)NC(=O)[C@H](CCCCN)NC(=O)[C@H](CCCCN)NC(=O)[C@H](C)NC(=O)[C@H](CC(C)C)NC(=O)[C@H](CCCCN)NC(=O)[C@H](C)NC(=O)[C@H](CC(C)C)NC(=O)[C@@H](N)CCCCN)C(=O)N[C@@H](C)C(=O)N[C@@H](CCCCN)C(N)=O [Si1, (KLAKLAK)2-NH2]
MDA-MB-231 [1]
  SI ± SD MDA-MB-231 (selective index): 0.206 ± 0.007
MCF-7 [2]
  SI ± SD MCF-7 (selective index): 1.243 ± 0.052
MDA-MB-231 [3]
  IC50: 746 ± 7.6 µM
MCF-10A
  IC50: 154 ± 6.53 µM
MCF-7 [4]
  IC50: 124 ± 8.12 µM

## KLAKLAK-NH2 [Si6]
MDA-MB-231 [3]
  IC50: > 2000 µM
MCF-10A
  IC50: > 2000 µM
MCF-7 [4]
  IC50: > 2000 µM
